One assay concerns the target T1, PPM1B (Homo sapiens, UniProt O75688).
T1 construct: inferred from pET-28a vector and Ni-NTA purification; made in house; host or cells: Escherichia coli BL21
T1 sequence (O75688 1-479): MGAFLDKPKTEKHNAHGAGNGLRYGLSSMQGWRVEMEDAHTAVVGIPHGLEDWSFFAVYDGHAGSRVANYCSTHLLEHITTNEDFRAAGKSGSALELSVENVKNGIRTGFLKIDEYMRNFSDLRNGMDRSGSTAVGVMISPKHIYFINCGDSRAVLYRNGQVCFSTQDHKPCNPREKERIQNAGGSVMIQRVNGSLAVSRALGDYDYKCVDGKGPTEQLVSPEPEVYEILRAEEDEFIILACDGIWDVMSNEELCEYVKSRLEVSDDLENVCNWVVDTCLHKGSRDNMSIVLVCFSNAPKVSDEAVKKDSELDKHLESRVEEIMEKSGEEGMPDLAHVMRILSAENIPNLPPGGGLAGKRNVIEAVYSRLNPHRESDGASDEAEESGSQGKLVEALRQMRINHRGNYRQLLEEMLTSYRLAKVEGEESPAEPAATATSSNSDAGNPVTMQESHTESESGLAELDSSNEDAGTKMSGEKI
Description: pNPP hydrolysis phosphatase kinetic assay. In kind it is biochemical. How it is done: Escherichia coli BL21 strain was transformed with pET‐28a bacterial expression vector harbouring PPM1B and its mutants. ^17 The fusion proteins were induced to be expressed with 0.5 mM isopropyl‐β‐D‐thiogalactoside (IPTG) and purified from bacterial lysate by Ni‐NTA chromatographic matrices (Qiagen) and AKTA FPLC (GE Healthcare Life Sciences) using a Superdex Increase 200 column.
The kinetic assays of PPM1B were carried out at 37°C in 0.1 M acetic acid buffer (50 mM Tris, 40 mM Mn^2+, pH 7.0). The p‐nitrophenyl phosphate (pNPP, Sigma) was used as the substrate which could be conveniently measured at 405 nm. Reactions were started by addition of pNPP to a reaction mixture containing PPM1B (0.4 μM PPM1B, final concentration) and various concentrations of HN252 and stopped by addition of 0.5 M EDTA (pH 10.0) after an appropriate time. The Km value of PPM1B towards pNPP hydrolysis (3.6 mM for pNPP) was used to determine the IC50. The IC50 values, the inhibition constant Ki and inhibition pattern were evaluated as previously described. ^18 The kinetic assays of HN252 towards to other protein phosphatases were carried out as previously described. ^19

The next assay has as its target T2, LYP (Homo sapiens, UniProt Q9Y2R2).
T2 sequence (Q9Y2R2 1-807): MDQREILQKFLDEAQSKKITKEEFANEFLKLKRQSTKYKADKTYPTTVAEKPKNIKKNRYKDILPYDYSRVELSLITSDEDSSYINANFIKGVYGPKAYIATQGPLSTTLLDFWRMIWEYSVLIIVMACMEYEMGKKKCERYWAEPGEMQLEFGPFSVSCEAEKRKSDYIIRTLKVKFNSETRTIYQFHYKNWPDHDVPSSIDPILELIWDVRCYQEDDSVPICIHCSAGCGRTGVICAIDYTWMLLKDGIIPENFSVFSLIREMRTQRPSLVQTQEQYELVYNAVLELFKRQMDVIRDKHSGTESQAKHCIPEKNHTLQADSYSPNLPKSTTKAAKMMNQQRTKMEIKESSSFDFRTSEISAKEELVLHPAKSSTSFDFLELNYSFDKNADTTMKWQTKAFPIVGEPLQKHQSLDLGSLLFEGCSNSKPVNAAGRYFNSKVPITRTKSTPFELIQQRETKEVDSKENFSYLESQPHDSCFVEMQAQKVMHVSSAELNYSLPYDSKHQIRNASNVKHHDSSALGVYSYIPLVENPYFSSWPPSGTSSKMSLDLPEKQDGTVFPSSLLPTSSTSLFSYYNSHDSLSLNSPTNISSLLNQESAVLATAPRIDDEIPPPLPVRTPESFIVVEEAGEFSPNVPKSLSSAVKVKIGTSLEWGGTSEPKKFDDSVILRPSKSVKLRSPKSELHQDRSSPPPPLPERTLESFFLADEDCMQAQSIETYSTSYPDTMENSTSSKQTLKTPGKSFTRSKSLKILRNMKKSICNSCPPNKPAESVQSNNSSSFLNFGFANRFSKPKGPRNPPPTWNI
Description: pNPP hydrolysis phosphatase assay (selectivity panel). The class given is biochemical. Particulars: pNPP as substrate.

The next assay has as its system HL7702 cells. Description: Western blot of protein phosphorylation after HN252 treatment. In kind it is cell-based. How it is done: HL7702, COS7, PC‐3 and HCT116 cells were purchased from the Cell Bank of the Shanghai Institute for Biological Sciences, Chinese Academy of Science. HCT116, COS7 and PC3 cells were cultured in DMEM (Gibco); HL7702 cells were cultured in RPMI 1640 medium (Gibco). All media were supplemented with 10% foetal bovine serum (Biological Industries), 100 IU penicillin and […] streptomycin at 37°C in a humidified incubator with 5% CO2.
(In general: In western blotting, separated proteins are transferred to a membrane and probed.)

Where [1] appears, read: immunoblotting, HN252 5 μM, 2 h.

We go through 1 molecule from PMC7701510, “Identification of HN252 as a potent inhibitor of protein phosphatase PPM1B” (Journal of Cellular and Molecular Medicine, 2020).

“Also recorded” adds a separate entry of the source.

The Ki is a dissociation constant, usually derived from enzyme kinetics or from competition with a known ligand. As usually defined, the IC50 is the point on the concentration scale where inhibition reaches its midpoint. With `Nc1cc(-c2ccc(-c3ccc(O)c(O)c3)cc2)ccc1C(=O)O` [HN252], the inhibition pattern entry on PPM1B (Lineweaver-Burk plot, pNPP hydrolysis, pH 7.0, 37°C) is reported as “competitive inhibition; also recorded: classical competitive inhibitor”. The molecule further had a Ki at PPM1B (Lineweaver-Burk, pNPP, pH 7.0, 37°C, 0.4 μM PPM1B, 40 mM Mn2+) of 520 ± 60 nM. Also, the IC50 against PPM1B (pNPP substrate, 0.4 μM PPM1B, 40 mM Mn2+, pH 7.0, 37°C, wild type) amounted to 760 nM; at LYP, 98200 ± 11700 nM. For the same molecule, the “selectivity: increase in potency against PPM1B than other PSPs” value on PPM1B (versus PPM1F, PPM1G, PPM1K, PHLPP2, PPM1A a notable exception) was “about 30 fold”. Further, in the assay with HL7702 cells (setting [1]), the “phosphorylation of JNK” value is recorded as “up‐regulated”. For the same molecule, the “phosphorylation of β-catenin” value in the assay with HL7702 cells (setting [1]) is “enhanced phosphorylation”. Moreover, the “phosphorylation of AMPKα, CDK2 and p38” value in the assay on HL7702 cells (increasing concentration of HN252, 2 h) is “dramatically increased”.
